Reference: PubChem BioAssay AID256 (DTP/NCI, 2004)
Values joined by “and” are separate entries in the source; they are usually repeats but may differ in a detail not shown here. Equal entries are not always repeated. Inconclusive results and toxic doses are left out. How the source made its calls: active means survival T/C of 150% or more; inactive means T/C below 125% in these data.

Tested on: CD2F1 mice, L1210 leukemia ip, survival T/C
Assay: NCI In Vivo Anticancer Drug Screen. Data for tumor model L1210 Leukemia (intraperitoneal) in CD2F1 (CDF1) mice
Conditions: higher = longer survival
How it was run: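 Antitumor effect is scored in animals hosting a serially transplanted tumor. Values compare compound-dosed animals against vehicle-only controls as a simple quotient.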

[1] = endpoint: mean survival time, dose: 25.0 mg/kg/injection, schedule: Q01DX009 (ip), vehicle: saline with Tween-80
[2] = endpoint: mean survival time, dose: 100.0 mg/kg/injection, schedule: Q01DX009 (ip), vehicle: saline with Tween-80
[3] = endpoint: mean survival time, dose: 100.0 mg/kg/injection, schedule: Q04DX003 (ip), vehicle: saline with Tween-80
[4] = endpoint: mean survival time, dose: 200.0 mg/kg/injection, schedule: Q01DX009 (ip), vehicle: saline with Tween-80
[5] = endpoint: mean survival time, dose: 200.0 mg/kg/injection, schedule: Q04DX003 (ip), vehicle: saline with Tween-80
[6] = endpoint: mean survival time, dose: 400.0 mg/kg/injection, schedule: Q01DX009 (ip), vehicle: saline with Tween-80
[7] = endpoint: mean survival time, dose: 400.0 mg/kg/injection, schedule: Q04DX003 (ip), vehicle: saline with Tween-80

Measured: T/C

CCOC(=O)CC1=Nc2c(Cl)ncnc2NN1
inactive: endpoint: mean survival time, dose: 100.0 mg/kg/injection, schedule: Q01DX001 (ip), vehicle: carboxymethylcellulose (CMC) 95 % of control | endpoint: mean survival time, dose: 200.0 mg/kg/injection, schedule: Q01DX001 (ip), vehicle: carboxymethylcellulose (CMC) 91 % of control

O=CC(Br)C(Br)c1ccccc1 (stereo unspecified)
inactive: endpoint: mean survival time, dose: 6.25 mg/kg/injection, schedule: Q01DX009 (ip), vehicle: saline with Tween-80 98 % of control | endpoint: mean survival time, dose: 6.25 mg/kg/injection, schedule: Q04DX003 (ip), vehicle: saline with Tween-80 113 % of control | endpoint: mean survival time, dose: 12.5 mg/kg/injection, schedule: Q01DX009 (ip), vehicle: saline with Tween-80 98 % of control | endpoint: mean survival time, dose: 12.5 mg/kg/injection, schedule: Q04DX003 (ip), vehicle: saline with Tween-80 98 % of control | [1] 104 % of control | endpoint: mean survival time, dose: 25.0 mg/kg/injection, schedule: Q04DX003 (ip), vehicle: saline with Tween-80 102 % of control and 104 % of control | endpoint: mean survival time, dose: 50.0 mg/kg/injection, schedule: Q01DX009 (ip), vehicle: other 111 % of control

N#[O+].O=[N+]([O-])O.[Co].[NH2-].[NH2-].[NH2-].[NH2-].[NH2-]
inactive: endpoint: mean survival time, dose: 6.25 mg/kg/injection, schedule: Q04DX002 (ip), vehicle: saline with Tween-80 95 % of control | endpoint: mean survival time, dose: 12.5 mg/kg/injection, schedule: Q04DX002 (ip), vehicle: saline with Tween-80 88 % of control | endpoint: mean survival time, dose: 25.0 mg/kg/injection, schedule: Q04DX002 (ip), vehicle: saline with Tween-80 98 % of control

O=C(O)c1cccc2c1-c1ccccc1C(Br)C2Br (stereo unspecified)
inactive: [1] 93 % of control | endpoint: mean survival time, dose: 50.0 mg/kg/injection, schedule: Q01DX005 (ip), vehicle: saline with Tween-80 100 % of control | endpoint: mean survival time, dose: 50.0 mg/kg/injection, schedule: Q01DX009 (ip), vehicle: saline with Tween-80 93 % of control | endpoint: mean survival time, dose: 100.0 mg/kg/injection, schedule: Q01DX005 (ip), vehicle: saline with Tween-80 88 % of control | [2] 89 % of control

NC(=O)c1csc(CSCCO)n1
inactive: endpoint: median survival time, dose: 41.75 mg/kg/injection, schedule: Q01DX005 (ip), vehicle: saline 103 % of control | endpoint: median survival time, dose: 83.5 mg/kg/injection, schedule: Q01DX005 (ip), vehicle: saline 104 % of control | endpoint: median survival time, dose: 167.0 mg/kg/injection, schedule: Q01DX005 (ip), vehicle: saline 102 % of control | endpoint: median survival time, dose: 334.0 mg/kg/injection, schedule: Q01DX005 (ip), vehicle: saline 98 % of control

CCOC(=O)CCN1C(=O)NC(C)(c2ccccc2)C1=O (stereo unspecified)
inactive: endpoint: mean survival time, dose: 100.0 mg/kg/injection, schedule: Q01DX009 (ip), vehicle: Klucel (hydroxypropylcellulose) (HPC) 100 % of control | endpoint: mean survival time, dose: 200.0 mg/kg/injection, schedule: Q01DX009 (ip), vehicle: Klucel (hydroxypropylcellulose) (HPC) 98 % of control | endpoint: mean survival time, dose: 400.0 mg/kg/injection, schedule: Q01DX009 (ip), vehicle: Klucel (hydroxypropylcellulose) (HPC) 114 % of control

O=C(COc1ccc(Cl)cc1)C1CSc2ccc(Cl)cc21 (stereo unspecified)
inactive: [2] 88 % of control | [3] 95 % of control | [4] 91 % of control | [5] 92 % of control | [6] 89 % of control | [7] 88 % of control

CCOC(=O)c1c(N)sc2c1CCN(Cc1ccccc1)C2
inactive: [3] 98 % of control | [5] 93 % of control | [7] 88 % of control

CC(=O)Nc1cc(C/C(N)=N/O)cc(NC(C)=O)c1
inactive: [3] 100 % of control | [5] 103 % of control | [7] 111 % of control

Cc1c(C)c2c(c(C)c1O)CC(CC(=O)CO)CO2 (stereo unspecified)
inactive: [2] 93 % of control | [4] 100 % of control | [6] 93 % of control

COC(=O)C(C(=O)OC)(C(=O)OC)C(=O)c1ccccc1
inactive: endpoint: mean survival time, dose: 100.0 mg/kg/injection, schedule: Q01DX001 (ip), vehicle: saline with Tween-80 104 % of control | endpoint: mean survival time, dose: 200.0 mg/kg/injection, schedule: Q01DX001 (ip), vehicle: saline with Tween-80 96 % of control | endpoint: mean survival time, dose: 400.0 mg/kg/injection, schedule: Q01DX001 (ip), vehicle: saline with Tween-80 93 % of control

CC(=O)Cc1ccc(C)cc1
inactive: [3] 97 % of control | [5] 93 % of control | [7] 104 % of control

CC1(C)CC2(OC2c2cccc(Cl)c2)C(=O)c2ccccc21 (stereo unspecified)
inactive: endpoint: mean survival time, dose: 100.0 mg/kg/injection, schedule: Q01DX009 (ip), vehicle: other 94 % of control | endpoint: mean survival time, dose: 200.0 mg/kg/injection, schedule: Q01DX009 (ip), vehicle: other 94 % of control | endpoint: mean survival time, dose: 400.0 mg/kg/injection, schedule: Q01DX009 (ip), vehicle: other 91 % of control

CCCC(C)(CC)NC(=O)OCC (stereo unspecified)
inactive: endpoint: mean survival time, dose: 100.0 mg/kg/injection, schedule: Q01DX001 (ip), vehicle: saline 107 % of control | endpoint: mean survival time, dose: 200.0 mg/kg/injection, schedule: Q01DX001 (ip), vehicle: saline 111 % of control | endpoint: mean survival time, dose: 400.0 mg/kg/injection, schedule: Q01DX001 (ip), vehicle: saline 111 % of control

CCOC(C)C(O)(c1ccc(N(C)C)cc1)c1ccc(N(C)C)cc1 (stereo unspecified)
inactive: endpoint: mean survival time, dose: 100.0 mg/kg/injection, schedule: Q04DX003 (ip), vehicle: other 95 % of control | endpoint: mean survival time, dose: 200.0 mg/kg/injection, schedule: Q04DX003 (ip), vehicle: other 91 % of control | endpoint: mean survival time, dose: 400.0 mg/kg/injection, schedule: Q04DX003 (ip), vehicle: other 97 % of control

CC(C)(C)OC(=O)C(CCC(=O)O)NC(=O)OCc1ccccc1 (stereo unspecified)
inactive: [3] 99 % of control | [5] 97 % of control | [7] 100 % of control

CCOC(=O)C(N)C[S][Sn]([CH3])([CH3])[Cl] (stereo unspecified)
inactive: endpoint: median survival time, dose: 3.12 mg/kg/injection, schedule: Q01DX009 (ip), vehicle: saline 98 % of control | endpoint: median survival time, dose: 6.25 mg/kg/injection, schedule: Q01DX009 (ip), vehicle: saline 97 % of control | endpoint: median survival time, dose: 12.5 mg/kg/injection, schedule: Q01DX009 (ip), vehicle: saline 100 % of control | endpoint: median survival time, dose: 25.0 mg/kg/injection, schedule: Q01DX009 (ip), vehicle: saline 89 % of control

CO/N=C(/c1ccccc1)c1cccc[n+]1C
inactive: endpoint: mean survival time, dose: 9.4 mg/kg/injection, schedule: Q01DX009 (ip), vehicle: saline 107 % of control | endpoint: mean survival time, dose: 18.8 mg/kg/injection, schedule: Q01DX009 (ip), vehicle: saline 97 % of control | endpoint: mean survival time, dose: 37.5 mg/kg/injection, schedule: Q01DX009 (ip), vehicle: saline 98 % of control | endpoint: mean survival time, dose: 75.0 mg/kg/injection, schedule: Q01DX001 (ip), vehicle: saline 97 % of control

N#CNC=Nc1ccccc1
inactive: endpoint: mean survival time, dose: 100.0 mg/kg/injection, schedule: Q04DX003 (ip), vehicle: saline 95 % of control | endpoint: mean survival time, dose: 200.0 mg/kg/injection, schedule: Q04DX003 (ip), vehicle: saline 95 % of control | endpoint: mean survival time, dose: 400.0 mg/kg/injection, schedule: Q04DX003 (ip), vehicle: saline 100 % of control

O=C(NC(=S)Nc1ccccc1C(=O)O)c1ccccc1
inactive: endpoint: mean survival time, dose: 66.0 mg/kg/injection, schedule: Q01DX009 (ip), vehicle: saline sonified 103 % of control | endpoint: mean survival time, dose: 100.0 mg/kg/injection, schedule: Q01DX009 (ip), vehicle: saline sonified 103 % of control | endpoint: mean survival time, dose: 150.0 mg/kg/injection, schedule: Q01DX009 (ip), vehicle: saline sonified 103 % of control
